Reference: patent US20220362386A1, “LIQUID COMPOSITIONS COMPRISING A LEVODOPA AMINO ACID CONJUGATE AND USES THEREOF” (NeuroDerm, Ltd., priority 2019, published 2022)
Counter-ions that a name gives are not always drawn. Non-standard residues stand in square brackets, D forms with d. Residues, ends and D or L forms follow the SMILES beside them. Dopa = N[C@@H](Cc1ccc(O)c(O)c1)C(=O)O

How the values were obtained:
physchem = format: physicochemical
Method: The volume of the solution in the bottle was adjusted to 5 ml, either by adding solvent, or be removing any residual solution, after which the bottle was tightly closed and left at 25° C. for stability observation. It is noted that throughout Example 4, the concentrations in the tables below were calculated taking into account the amount of solvent added or the solution removed, in which event, the calculations were performed regarding the 5 ml+(amount removed) as the volume of the solution. It is further noted that throughout this document, unless mentioned otherwise, the stability was measured using the manual visual inspection Bosch apparatus MIH DX, at a magnification of ×1.75.
The LD-Tyr free base, prepared according to Example 2, was added to a solvent, as detailed in Table 7 below, and neutralized by addition of NaOH. When maximum solubility was observed, the solution was filtered and then transferred to a bottle that was previously weighed and flushed with nitrogen. The volume of the solution in the bottle was adjusted to 5 ml, after which the bottle was tightly closed and left at 25° C. for stability observation.
When maximum solubility was observed, the solution was filtered and then transferred to a bottle that was previously weighed and flushed with nitrogen. The volume of the solution in the bottle was adjusted to 5 ml, after which the bottle was tightly closed and left at 25° C. for stability observation.
(§1) When maximum solubility was observed, the solution was filtered and then transferred to a bottle that was previously weighed and flushed with nitrogen. The volume of the solution in the bottle was adjusted to 5 ml, after which the bottle was tightly closed and stored at 25° C. for stability observation.
as §1
LD-Lys TFA salt, prepared according to Example 1, and which comprises two equivalents of TFA, was added to a solvent, as detailed in Table 11 below, and neutralized by addition of NaOH. When maximum solubility was observed, the solution was filtered and then transferred to a bottle that was previously weighed and flushed with nitrogen. The volume of the solution in the bottle was adjusted to 5 ml, after which the bottle was tightly closed and stored at 25° C. for stability observation.
As detailed above regarding other solutions, with the LD-Tyr free base when maximum solubility was observed, the solution was filtered and then transferred to a bottle that was previously weighed and flushed with nitrogen. The volume of the solution in the bottle was adjusted to 5 ml, after which the bottle was tightly closed and left at 25° C. for stability observation.
LD-Lys HCl salt, prepared according to Example 3, was added to a solvent, as detailed in Table 13 below, and neutralized by the addition of NaOH. When maximum solubility was observed, the solution was filtered and then transferred to a bottle that was previously weighed and flushed with nitrogen. The volume of the solution in the bottle was adjusted to 5 ml, after which the bottle was tightly closed and left at 25° C. for stability observation.

[1] = Analytical stability of LD-Tyr/CD formulations by HPLC (Tables 42-45c); settings: for % retention, t = 1 week / Analytical stability result (HPLC), t = 1 week / % retention, t = 2 weeks / Analytical stability result (HPLC), t = 2 weeks: NB 144-4 formulation; for Analytical stability result (HPLC), t = 1 week / Analytical stability result (HPLC), t = 2 weeks: in mg/mL (unit assumed)
[2] = solvent DMSO:(0.1% NaBis in WFI) (70:30), pH 5.40
[3] = solvent NMP:(0.1% NaBis in WFI) (70:30), pH 4.62
[4] = solvent […] CD solution in WFI, pH 8.35 (titer/NaOH)
[5] = NB 144-32 (F1), 37% LD-Tyr/0.5% CD
[6] = NB 144-34 (F2), 44% LD-Tyr/0.5% CD
[7] = NB 144-39 (F3), 30% LD-Tyr/0.5% CD
[8] = solvent 0.1% NaBis in WFI, pH 1.8
[9] = solvent 0.1% NaBis in WFI, pH 6.92
[10] = solvent 0.1% NaBis in WFI, pH 6.99
[11] = solvent 0.1% NaBis in WFI, pH 7.06
[12] = solvent […] CD solution, pH 8.48

## N[C@@H](Cc1ccc(O)c(O)c1)C(=O)N[C@@H](Cc1ccc(O)cc1)C(=O)O [LD-Tyr TFA salt, Levodopa Tyrosine TFA Salt] (H-[Dopa]-Tyr-OH)
physchem; 0.1% sodium bisulfite (Na Bis) in WFI, pH 7.22 (titer/NaOH), 205 mg/ml salt, TFA Salt
  Appearance: precipitated
physchem; 0.1% sodium bisulfite in WFI, 25 °C, aqueous buffer, thermodynamic from solid, solvent 0.1% sodium bisulfite (Na Bis) in WFI, pH 7.22 (titer/NaOH), precipitated during titration
  solubility: ≤ 205 mg/mL
physchem; DMSO:(0.1% NaBis in WFI) (70:30), pH 5.40, 200 mg/ml salt
  Appearance: clear
physchem; DMSO, 184 mg/ml salt
  Appearance: clear
physchem; NMP:(0.1% NaBis in WFI) (70:30), pH 4.62, 200 mg/ml salt
  Appearance: clear
physchem; NMP, 200 mg/ml salt
  Appearance: Clear
physchem; WFI, pH ~2, 210 mg/ml salt
  Appearance: clear
physchem; […] CD solution in WFI, pH 8.35, 178 mg/ml salt
  Appearance: clear
physchem; solvent 0.1% sodium bisulfite (Na Bis) in WFI, pH 7.22 (titer/NaOH), precipitated during titration
  LD-Tyr free base Concentration: 160 mg/mL
physchem; solvent DMSO
  LD-Tyr TFA salt concentration: 184 mg/mL
  LD-Tyr free base Concentration: 140 mg/mL
physchem; [2]
  LD-Tyr TFA salt concentration: 200 mg/mL
  LD-Tyr free base Concentration: 150 mg/mL
physchem; solvent NMP
  LD-Tyr TFA salt concentration: 200 mg/mL
  LD-Tyr free base Concentration: 150 mg/mL
physchem; [3]
  LD-Tyr TFA salt concentration: 200 mg/mL
  LD-Tyr free base Concentration: 150 mg/mL
physchem; solvent Water for injection (WFI), pH ~2
  LD-Tyr TFA salt concentration: 210 mg/mL
physchem; solvent Water for irrigation (WFI), pH ~2
  LD-Tyr free base Concentration: 160 mg/mL
physchem; [4]
  LD-Tyr TFA salt concentration: 178 mg/mL
  LD-Tyr free base Concentration: 135 mg/mL
[1]; Storage temp. 2-8° C.
  % retention, t = 1 week: 98.8%
  Analytical stability result (HPLC), t = 1 week: 323.22
  % retention, t = 2 weeks: 99.7%
  Analytical stability result (HPLC), t = 2 weeks: 326.20
[1]; Storage temp. 25° C.
  % retention, t = 1 week: 101.1%
  Analytical stability result (HPLC), t = 1 week: 330.81
  % retention, t = 2 weeks: 97.3%
  Analytical stability result (HPLC), t = 2 weeks: 318.15
[1]; Storage temp. 40° C.
  % retention, t = 1 week: 93.0%
  Analytical stability result (HPLC), t = 1 week: 304.24
[1]; [5]
  Concentration (HPLC), t = 0: 364.15
  Concentration (HPLC), t = 28 h at 32° C.: 352.22
[1]; [6]
  Concentration (HPLC), t = 0: 437.98
  Concentration (HPLC), t = 28 h at 32° C.: 424.09
[1]; [7]
  Concentration (HPLC), t = 0: 295.42
  Concentration (HPLC), t = 28 h at 32° C.: 291.94

## N=C(N)NCCC[C@H](NC(=O)[C@@H](N)Cc1ccc(O)c(O)c1)C(=O)O [LD-Arg TFA salt, Levodopa Arginine TFA Salt]
physchem; 0.1% NaBis in WFI, pH 1.8, 610 mg/ml salt
  Appearance: clear
physchem; 0.1% NaBis in WFI, pH 6.92, 200 mg/ml salt
  Appearance: clear
physchem; 0.1% NaBis in WFI, pH 6.99, 420 mg/ml salt
  Appearance: clear
physchem; 0.1% NaBis in WFI, pH 7.06, 200 mg/ml salt
  Appearance: clear
physchem; WFI, pH 1.7, 600 mg/ml salt
  Appearance: clear
physchem; WFI, pH 7.2, 200 mg/ml salt
  Appearance: clear
physchem; WFI, pH 7.2, 420 mg/ml salt
  Appearance: clear
physchem; […] CD solution, pH 8.48, 180 mg/ml salt
  Appearance: clear
physchem; [8]
  LD-Arg TFA salt concentration: 610 mg/mL
  LD-Arg free base Concentration: 370 mg/mL
physchem; [9]
  LD-Arg TFA salt concentration: 200 mg/mL
  LD-Arg free base Concentration: 120 mg/mL
physchem; [10]
  LD-Arg TFA salt concentration: 420 mg/mL
  LD-Arg free base Concentration: 260 mg/mL
physchem; [11]
  LD-Arg TFA salt concentration: 200 mg/mL
  LD-Arg free base Concentration: 120 mg/mL
physchem; solvent WFI, pH 1.7
  LD-Arg TFA salt concentration: 600 mg/mL
  LD-Arg free base Concentration: 370 mg/mL
physchem; solvent WFI, pH 7.2 (line r9)
  LD-Arg TFA salt concentration: 420 mg/mL
  LD-Arg free base Concentration: 260 mg/mL
physchem; solvent WFI, pH 7.2 (line r17)
  LD-Arg TFA salt concentration: 200 mg/mL
  LD-Arg free base Concentration: 120 mg/mL
physchem; [12]
  LD-Arg TFA salt concentration: 180 mg/mL
  LD-Arg free base Concentration: 110 mg/mL
